Results on 28 compounds are retold here after patent publication US20230312522A1, “CYP46A1 INHIBITORS AND METHODS OF USE THEREOF” (Sage Therapeutics, Inc., priority 2020, published 2023).

The IC50 is the concentration at which inhibition is half-maximal.

A value given as a limit tells only on which side of the number the result lay.

Chain of CYP46A1 (Q9Y6A2 whole entry, species assumed): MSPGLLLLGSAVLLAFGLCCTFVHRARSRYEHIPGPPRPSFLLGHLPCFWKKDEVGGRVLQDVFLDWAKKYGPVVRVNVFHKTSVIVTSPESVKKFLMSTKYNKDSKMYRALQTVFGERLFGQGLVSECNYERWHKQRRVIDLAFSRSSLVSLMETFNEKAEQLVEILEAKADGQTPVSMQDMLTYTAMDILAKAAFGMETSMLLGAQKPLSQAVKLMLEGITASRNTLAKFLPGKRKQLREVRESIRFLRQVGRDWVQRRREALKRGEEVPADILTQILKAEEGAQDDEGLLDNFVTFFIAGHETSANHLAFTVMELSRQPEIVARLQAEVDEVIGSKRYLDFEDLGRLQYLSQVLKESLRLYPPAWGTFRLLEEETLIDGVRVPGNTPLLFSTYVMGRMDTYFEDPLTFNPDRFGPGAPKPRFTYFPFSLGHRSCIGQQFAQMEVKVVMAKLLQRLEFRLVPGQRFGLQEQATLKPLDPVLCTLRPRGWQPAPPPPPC

The test has as its target CYP46A1 (Homo sapiens (Human), UniProt Q9Y6A2). The test can be described thus: CYP46A1 enzyme assay (testosterone substrate, HPLC-MS). Format: biochemical. The note with it: CYP46A1 5 μM, Testosterone 10 mM, NADPH-generating system, 37° C., 15 minutes. The method, then: Briefly, in a 384-well plate format, 10 μL per well of an enzyme-substrate mixture of CYP46A1 (5 μM final concentration) and Testosterone ([…] final concentration) were dispensed to wells containing test compound. For CYP46A1 titration, 5 μL per well of serially diluted CYP46A1 (concentrations including 10 μM, 5 μM, and 2.5 μM) and Testosterone (concentration of […]) were dispensed. For Testosterone titration, 5 μL per well of serially diluted Testosterone (concentrations including 10 μM, 5 μM, and 2.5 μM) and CYP46A1 (concentration of 5 μM) were dispensed. The plates were centrifuged at 1000 rpm for 30 seconds, and then sealed and incubated at 37° C. for 30 minutes. The plate was removed from the incubator, and then 10 μL per well of NADPH-generating system were dispensed to initiate the reaction. The plates were incubated at 37° C. for 15 minutes, added with 80 μL per well of 100% methanol consisting 1 ng/ml diclofenac as internal standard, and then transferred for HPLC-MS.
In Table 2, A indicates a CYP46A1 IC50<0.1 μM, B indicates a CYP46A1 IC50 (μM) of 0.1 μM to <1.0 μM, and C indicates a CYP46A1 IC50 (μM) of ≥1.0 μM
`O=C(c1cccnc1-c1ccncn1)N1CCC(F)(Cc2ccc(F)cc2)CC1` [Compound 1, (4-fluoro-4-(4-fluorobenzyl)piperidin-1-yl)(2-(pyrimidin-4-yl)pyridin-3-yl)methanone] gave an IC50 below 100 nM.
Turning to `O=C(c1cccnc1-c1ccncn1)N1CCC(F)(CC2CCOCC2)CC1` [Compound 2, (4-fluoro-4-((tetrahydro-2H-pyran-4-yl)methyl)piperidin-1-yl)(2-(pyrimidin-4-yl)pyridin-3-yl)methanone], the 50% inhibitory concentration (IC50) is at least 1000 nM.
The result for `O=C(c1cccnc1-c1ccncc1)N1CCC(F)(CC2CCOCC2)CC1` [Compound 3] reads at least 1000 nM; that for `O=C(c1cccnc1-c1ccncn1)N1CCC(F)(Cc2ccc(C(F)(F)F)cc2)CC1` [Compound 4, (4-fluoro-4-(4-(trifluoromethyl)benzyl)piperidin-1-yl)(2-(pyrimidin-4-yl)pyridin-3-yl)methanone], below 100 nM.
Take `O=C(c1cccnc1-c1ccncn1)N1CCC(F)(Cc2ccccn2)CC1` [Compound 5, (4-fluoro-4-(pyridin-2-ylmethyl)piperidin-1-yl)(2-(pyrimidin-4-yl)pyridin-3-yl)methanone]: the IC50 is below 100 nM.
Compound `N#Cc1ccc(CC2(F)CCN(C(=O)c3cccnc3-c3ccncn3)CC2)cc1` [Compound 6, 4-((4-fluoro-1-(2-(pyrimidin-4-yl)nicotinoyl)piperidin-4-yl)methyl)benzonitrile] returned an IC50 below 100 nM.
`O=C(c1cccnc1-c1ccncn1)N1CCC(F)(Cc2ccc(C3CC3)cn2)CC1` [Compound 7, (4-((5-cyclopropylpyridin-2-yl)methyl)-4-fluoropiperidin-1-yl)(2-(pyrimidin-4-yl)pyridin-3-yl)methanone]: the concentration for half-maximal inhibition (IC50) was below 100 nM.
Compound `N#Cc1ccc(CC2(F)CCN(C(=O)c3cccnc3-c3ccncn3)CC2)c(F)c1` [Compound 9, 3-fluoro-4-((4-fluoro-1-(2-(pyrimidin-4-yl)nicotinoyl)piperidin-4-yl)methyl)benzonitrile] displayed a half-inhibitory concentration (IC50) below 100 nM.
The result for `O=C(c1cccnc1-c1ccncn1)N1CCC(F)(Cc2ccc(F)cn2)CC1` [Compound 10, (4-fluoro-4-((5-fluoropyridin-2-yl)methyl)piperidin-1-yl)(2-(pyrimidin-4-yl)pyridin-3-yl)methanone] reads 100 to 1000 nM; that for `N#Cc1cc(F)c(CC2(F)CCN(C(=O)c3cccnc3-c3ccncn3)CC2)c(F)c1` [Compound 11, 3,5-difluoro-4-((4-fluoro-1-(2-(pyrimidin-4-yl)nicotinoyl)piperidin-4-yl)methyl)benzonitrile], below 100 nM; that for `O=C(c1cccnc1-c1ccncn1)N1CCC(F)(C(=O)c2ccc(C(F)(F)F)cc2)CC1` [Compound 12, (4-fluoro-1-(2-(pyrimidin-4-yl)nicotinoyl)piperidin-4-yl)(4-(trifluoromethyl)phenyl)methanone], 100 to 1000 nM.
`N#Cc1ccc([C@H](O)C2(F)CCN(C(=O)c3cccnc3-c3ccncn3)CC2)c(F)c1` [Compound 15] yielded an IC50 below 100 nM.
The result for `N#Cc1ccc([C@@H](O)C2(F)CCN(C(=O)c3cccnc3-c3ccncn3)CC2)c(F)c1` [Compound 16] reads 100 to 1000 nM; that for `N#Cc1ccc(C(=O)C2(F)CCN(C(=O)c3cccnc3-c3ccncn3)CC2)c(F)c1` [Compound 17, 3-fluoro-4-(4-fluoro-1-(2-(pyrimidin-4-yl)nicotinoyl)piperidine-4-carbonyl)benzonitrile], 100 to 1000 nM.
In turn, `N#Cc1ccc(CC2(F)CCN(C(=O)c3cccnc3-c3ccncn3)CC2)nc1` [Compound 21, 6-((4-fluoro-1-(2-(pyrimidin-4-yl)nicotinoyl)piperidin-4-yl)methyl)nicotinonitrile] had a half-inhibitory concentration (IC50) of 100 to 1000 nM.
The result for `O=C(c1cccnc1-c1ccncn1)N1CCC(F)(Cc2cc(C(F)(F)F)ccn2)CC1` [Compound 25, (4-fluoro-4-((4-(trifluoromethyl)pyridin-2-yl)methyl)piperidin-1-yl)(2-(pyrimidin-4-yl)pyridin-3-yl)methanone] reads 100 to 1000 nM; that for `O=C(c1cccnc1-c1ccncn1)N1CCC(F)(Cc2ccc(OC(F)(F)F)cn2)CC1` [Compound 27, (4-fluoro-4-((5-(trifluoromethoxy)pyridin-2-yl)methyl)piperidin-1-yl)(2-(pyrimidin-4-yl)pyridin-3-yl)methanone], 100 to 1000 nM; that for `O=C(c1cccnc1-c1ccncn1)N1CCC(F)(Cc2ncc(Cl)cc2F)CC1` [Compound 30, (4-((5-chloro-3-fluoropyridin-2-yl)methyl)-4-fluoropiperidin-1-yl)(2-(pyrimidin-4-yl)pyridin-3-yl)methanone], 100 to 1000 nM.
With `O=C(c1cccnc1-c1ccncn1)N1CCC(F)(Cc2ccc(C(F)(F)F)nn2)CC1` [Compound 36, (4-fluoro-4-((6-(trifluoromethyl)pyridazin-3-yl)methyl)piperidin-1-yl)(2-(pyrimidin-4-yl)pyridin-3-yl)methanone], the concentration for half-maximal inhibition (IC50) fell in the range of 100 to 1000 nM.
The result for `O=C(c1cccnc1-c1ccncc1)N1CCC(F)(Cc2ccc(C(F)(F)F)nn2)CC1` [Compound 37, [2,4′-bipyridin]-3-yl(4-fluoro-4-((6-(trifluoromethyl)pyridazin-3-yl)methyl)piperidin-1-yl)methanone] reads 100 to 1000 nM.
The result for `O=C(c1cccnc1-c1ccncn1)N1CCC(F)(Cc2cnc(C(F)(F)F)cn2)CC1` [Compound 40, (4-fluoro-4-((5-(trifluoromethyl)pyrazin-2-yl)methyl)piperidin-1-yl)(2-(pyrimidin-4-yl)pyridin-3-yl)methanone] reads 100 to 1000 nM.
As for `O=C(c1cccnc1-c1ccncn1)N1CCC(F)(Cc2cnc(C(F)(F)F)nc2)CC1` [Compound 41, (4-fluoro-4-((2-(trifluoromethyl)pyrimidin-5-yl)methyl)piperidin-1-yl)(2-(pyrimidin-4-yl)pyridin-3-yl)methanone], the IC50 was 100 to 1000 nM.
`Cc1ccc(CC2(F)CCN(C(=O)c3cccnc3-c3ccncn3)CC2)nc1` [Compound 42, (4-fluoro-4-((5-methylpyridin-2-yl)methyl)piperidin-1-yl)(2-(pyrimidin-4-yl)pyridin-3-yl)methanone] gave a concentration for half-maximal inhibition (IC50) of 100 to 1000 nM.
With `O=C(c1cccnc1-c1ccncn1)N1CCC(F)(Cc2cnccn2)CC1` [Compound 44, (4-fluoro-4-(pyrazin-2-ylmethyl)piperidin-1-yl)(2-(pyrimidin-4-yl)pyridin-3-yl)methanone] the figure was 100 to 1000 nM; with `O=C(c1cccnc1-c1ccncn1)N1CCC(F)(Cc2cccnn2)CC1` [Compound 48, (4-fluoro-4-(pyridazin-3-ylmethyl)piperidin-1-yl)(2-(pyrimidin-4-yl)pyridin-3-yl)methanone], 100 to 1000 nM; with `O=C(c1cccnc1-c1ccncc1)N1CCC(F)(Cc2cccnn2)CC1` [Compound 49, [2,4′-bipyridin]-3-yl(4-fluoro-4-(pyridazin-3-ylmethyl)piperidin-1-yl)methanone], 100 to 1000 nM.
With `Cc1cnc(CC2(F)CCN(C(=O)c3cccnc3-c3ccncn3)CC2)cn1` [Compound 50, (4-fluoro-4-((5-methylpyrazin-2-yl)methyl)piperidin-1-yl)(2-(pyrimidin-4-yl)pyridin-3-yl)methanone] the figure was 100 to 1000 nM; with `Cc1ccc(CC2(F)CCN(C(=O)c3cccnc3-c3ccncn3)CC2)cn1` [Compound 53], 100 to 1000 nM.
